This note sets out measurements from patent US10954252B1, “Inhibitors of human immunodeficiency virus replication” (ViiV HEALTHCARE UK (NO.5) LIMITED, priority 2017, dated 2021).

Series [1] is described as follows: Stereoisomer interconversion on storage in MeOH at ambient condition. It is filed as physicochemical. The settings on record: stored in MeOH at ambient condition.
In series [2] the test system is recombinant NL4-3 virus (nef section replaced with Renilla luciferase gene) in MT-2 cells. Description: HIV cell culture assay (antiviral activity, luciferase readout). It is filed as cell-based. The settings on record: Renilla, NL43, Table 1; MT-2 cells infected for 4-5 days with recombinant NL4-3 luciferase virus. Summed up: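 Serially diluted compounds were present throughout a 4-5 day infection of MT-2 cells by recombinant NL4-3 whose nef region partly encodes Renilla luciferase. Antiviral activity was taken from live-cell luciferase signal, with the 50% effective concentration fitted by the exponential median effect equation.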

A short description of series [3]: Compound cytotoxicity, XTT-based colorimetric assay. The note with it: human, uninfected MT2 cells, Table 1, day 4, XTT. It is filed as cell-based. The method, boiled down: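 XTT colorimetric read-out on day 4 gave CC50 values, using MT2 cells left uninfected but otherwise handled as in the antiviral assay.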

Each structure is given as a SMILES string. Bounds are passed on as bounds.

On to `Cn1nc(NS(C)(=O)=O)c2c(Cl)ccc(-n3c([C@H](Cc4cc(F)cc(F)c4)NC(=O)Cn4nc(C(F)F)c5c4C(F)(F)C4CC54)nc4nc(C(F)(F)F)ccc4c3=O)c21` (stereo in doubt) [Example 11.2, N—((S)-1-(3-(4-chloro-1-methyl-3-(methylsulfonamido)-1H-indazol-7-yl)-4-oxo-7-(trifluoromethyl)-3,4-dihydropyrido[2,3-d]pyrimidin-2-yl)-2-(3,5-difluorophenyl)ethyl)-2-((3bS,4aR)-3-(difluoromethyl)-5,5-difluoro-3b,4,4a,5-tetrahydro-1H-cyclopropa[3,4]cyclopenta[1,2-c]pyrazol-1-yl)acetamide], for which the “conversion to another stereoisomer on storage” value (“conversion” below) in series [1] is reported as “converts slowly to one of the isomers in Example 11.1”. In addition, the EC50 in series [2] came to 0.051 µM. This compound also came in with a CC50 at 4 days in series [3] of more than 10 µM.
For the compound `Cn1nc(NS(C)(=O)=O)c2c(Cl)ccc(-n3c(C(Cc4cc(F)cc(F)c4)NC(=O)Cn4nc(C(F)F)c5c4C(F)(F)[C@@H]4C[C@H]54)nc4nc(C(F)(F)F)ccc4c3=O)c21` (mixture of isomers) [Example 11.1, N—((S)-1-(3-(4-chloro-1-methyl-3-(methylsulfonamido)-1H-indazol-7-yl)-4-oxo-7-(trifluoromethyl)-3,4-dihydropyrido[2,3-d]pyrimidin-2-yl)-2-(3,5-difluorophenyl)ethyl)-2-((3bS,4aR)-3-(difluoromethyl)-5,5-difluoro-3b,4,4a,5-tetrahydro-1H-cyclopropa[3,4]cyclopenta[1,2-c]pyrazol-1-yl)acetamide], the “conversion” value in series [1] is given as “one of the isomers in Example 11.1 converts to Example 11.2”. The EC50 in series [2] was 0.52 µM. The compound also had a CC50 at 4 days in series [3] of more than 10 µM.
On to `Cn1nc(NS(C)(=O)=O)c2c(Cl)ccc(-n3c([C@H](Cc4cc(F)cc(F)c4)NC(=O)Cn4nc(C(F)F)c5c4C(F)(F)C4CC54)nc4nc(Cl)ccc4c3=O)c21` (stereo in doubt) [Example 12.2, N—((S)-1-(7-chloro-3-(4-chloro-1-methyl-3-(methylsulfonamido)-1H-indazol-7-yl)-4-oxo-3,4-dihydropyrido[2,3-d]pyrimidin-2-yl)-2-(3,5-difluorophenyl)ethyl)-2-((3bS,4aR)-3-(difluoromethyl)-5,5-difluoro-3b,4,4a,5-tetrahydro-1H-cyclopropa[3,4]cyclopenta[1,2-c]pyrazol-1-yl)acetamide], for which, in series [1], the “conversion” value is “converts slowly to one of the stereoisomers in Example 12.1”. In addition, in series [2], the EC50 was determined as 0.042 µM. The CC50 at 4 days in series [3] was more than 3.3 µM.
